# ChEMBL document CHEMBL1136021, “Design, synthesis, and SAR of substituted acrylamides as factor Xa inhibitors” (Bioorg Med Chem Lett, 2002)
# How the values were obtained:
# Coagulation factor X [1] = target: T1, Coagulation factor X (Homo sapiens, UniProt P00742); assay: Inhibitory activity against factor Xa
# Serine protease 1 = Serine protease 1 (Homo sapiens, UniProt P07477); assay: Inhibitory activity against trypsin was determined
# Prothrombin = Prothrombin (Homo sapiens, UniProt P00734); assay: Inhibitory activity against Factor IIa (serine protease) was determined
# Coagulation factor X [2] = target: T1, Coagulation factor X; assay: Inhibitory activity against Coagulation factor Xa (serine protease) was determined
# Coagulation factor X [3] = target: T1, Coagulation factor X; assay: Inhibitory activity against factor Xa was determined
# Coagulation factor X [4] = target: T1, Coagulation factor X; assay: Inhibitory activity against factor Xa, activity expressed as Ki nM
# Serine protease 1, sequence (P07477 whole entry): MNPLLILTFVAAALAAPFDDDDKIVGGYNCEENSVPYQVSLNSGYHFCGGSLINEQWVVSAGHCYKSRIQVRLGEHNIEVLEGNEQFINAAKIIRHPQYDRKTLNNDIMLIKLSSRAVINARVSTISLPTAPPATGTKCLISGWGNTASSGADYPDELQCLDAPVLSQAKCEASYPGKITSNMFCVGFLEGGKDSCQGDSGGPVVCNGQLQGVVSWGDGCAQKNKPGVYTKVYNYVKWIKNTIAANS
# T1 sequence (P00742 41-179 limits assumed): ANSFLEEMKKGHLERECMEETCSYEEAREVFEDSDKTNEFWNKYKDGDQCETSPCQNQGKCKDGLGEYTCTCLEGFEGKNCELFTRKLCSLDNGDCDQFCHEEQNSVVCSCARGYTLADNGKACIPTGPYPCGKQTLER
# T1 sequence (P00742 235-488 limits assumed): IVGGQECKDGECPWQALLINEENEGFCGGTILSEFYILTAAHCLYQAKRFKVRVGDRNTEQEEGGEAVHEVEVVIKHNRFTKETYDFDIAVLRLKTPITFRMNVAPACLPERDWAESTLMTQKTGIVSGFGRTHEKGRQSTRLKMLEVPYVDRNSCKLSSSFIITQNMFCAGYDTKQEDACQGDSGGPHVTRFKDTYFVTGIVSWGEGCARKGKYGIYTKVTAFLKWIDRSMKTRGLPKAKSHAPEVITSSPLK
Structure (SMILES),IC50 (Coagulation factor X [1]),further results
N=C(N)c1cccc(/C(=C\C(=O)Nc2ccc(-c3ccccc3S(N)(=O)=O)cc2)c2ccco2)c1,0.184 µM,
C/C(=C(\F)C(=O)Nc1ccc(-c2ccccc2S(N)(=O)=O)cc1F)c1cc(C(=N)N)ccc1[N+](=O)[O-],0.015 µM,
CC(=Cc1cccc(C(=N)N)c1)C(=O)Nc1ccc(-c2ccccc2S(N)(=O)=O)cc1,0.362 µM,
C/C(=C(\F)C(=O)Nc1ccc(-c2ccccc2S(N)(=O)=O)cc1F)c1cccc(C(=N)N)c1,0.0002 µM,IC50 (Serine protease 1): 0.194 µM; IC50 (Prothrombin): 2.2 µM
N=C(N)c1cccc(C=C(C(=O)Nc2ccc(-c3ccccc3S(N)(=O)=O)cc2)c2ccncc2)c1,0.628 µM,
CC(=C(F)C(=O)Nc1ccc(-c2ccccc2S(N)(=O)=O)cc1Br)c1ccc(F)c(C(=N)N)c1,0.00075 µM,
CS(=O)(=O)CC(=C(F)C(=O)Nc1ccc(-c2ccccc2S(N)(=O)=O)cc1)c1cccc(C(=N)N)c1,0.01 µM,
CC(C)C(=CC(=O)Nc1ccc(-c2ccccc2S(N)(=O)=O)cc1)c1cccc(C(=N)N)c1,0.035 µM,
CC(=C(F)C(=O)Nc1ccc(-c2ccccc2S(N)(=O)=O)cc1F)c1ccc(F)c(C(=N)N)c1,0.0015 µM,
N=C(N)c1cccc(C(=CC(=O)Nc2ccc(-c3ccccc3S(N)(=O)=O)cc2)Cc2cc[nH]n2)c1,0.048 µM,
CCSCC(=C(F)C(=O)Nc1ccc(-c2ccccc2S(N)(=O)=O)cc1)c1cccc(C(=N)N)c1,0.013 µM,
N=C(N)c1cccc(C(=C(F)C(=O)Nc2ccc(-c3ccccc3S(N)(=O)=O)cc2)C(F)(F)F)c1,0.003 µM,
N=C(N)c1cc(C=CC(=O)Nc2ccc(-c3ccccc3S(N)(=O)=O)cc2)ccc1F,0.099 µM,
N=C(N)c1cccc(C(=CC(=O)Nc2ccc(-c3ccccc3S(N)(=O)=O)cc2)C(F)(F)F)c1,0.01 µM,
N=C(N)c1cccc(C=CC(=O)Nc2ccc(-c3ccccc3S(N)(=O)=O)cc2)c1 [listing 2 of 2 here],,IC50 (Coagulation factor X [2]): 3.12 µM
CC(C)CC(=CC(=O)Nc1ccc(-c2ccccc2S(N)(=O)=O)cc1)c1cccc(C(=N)N)c1,0.005 µM,
CC(=C(F)C(=O)Nc1ccc(-c2ccccc2S(N)(=O)=O)cc1Cl)c1cccc(C(=N)N)c1,0.0005 µM,IC50 (Serine protease 1): 0.188 µM; IC50 (Prothrombin): 0.65 µM
COC(=O)C(=Cc1cccc(C(=N)N)c1)C(=O)Nc1ccc(-c2ccccc2S(N)(=O)=O)cc1,,IC50 (Coagulation factor X [3]): 0.759 µM
COCC(=CC(=O)Nc1ccc(-c2ccccc2S(N)(=O)=O)cc1)c1cccc(C(=N)N)c1,0.007 µM,
N=C(N)c1cccc(C=C(C(=O)Nc2ccc(-c3ccccc3S(N)(=O)=O)cc2)c2ccccn2)c1,0.664 µM,
CN(C)CC(=C(F)C(=O)Nc1ccc(-c2ccccc2S(N)(=O)=O)cc1F)c1cccc(C(=N)N)c1,0.191 µM,
COCCOc1ccc(C(=N)N)cc1C=CC(=O)Nc1ccc(-c2ccccc2S(N)(=O)=O)cc1,0.009 µM,
COc1ccc(C=CC(=O)Nc2ccc(-c3ccccc3S(N)(=O)=O)cc2)cc1C(=N)N,6.47 µM,

# Second part, led by results:
IC50 (Coagulation factor X [1]),Structure (SMILES),further results
0.004 µM,CC(=CC(=O)Nc1ccc(-c2ccccc2S(N)(=O)=O)cc1)c1cccc(C(=N)N)c1,
0.018 µM,N=C(N)c1ccc(F)c(C=CC(=O)Nc2ccc(-c3ccccc3S(N)(=O)=O)cc2)c1,
0.001 µM,CC(=C(F)C(=O)Nc1ccc(-c2ccccc2S(N)(=O)=O)cc1)c1cccc(C(=N)N)c1,IC50 (Serine protease 1): 0.259 µM; IC50 (Prothrombin): 3.19 µM
0.215 µM,COc1ccc(C(=N)N)cc1C=CC(=O)Nc1ccc(-c2ccccc2S(N)(=O)=O)cc1,
0.0005 µM,CC(=C(F)C(=O)Nc1ccc(-c2ccccc2S(N)(=O)=O)cc1Br)c1cccc(C(=N)N)c1,IC50 (Serine protease 1): 0.189 µM; IC50 (Prothrombin): 0.503 µM
0.017 µM,N=C(N)c1cccc(C=CC(=O)Nc2ccc(-c3ccccc3S(N)(=O)=O)cc2)c1 [listing 1 of 2 here],
0.053 µM,N=C(N)c1cccc(C(=CC(=O)Nc2ccc(-c3ccccc3S(N)(=O)=O)cc2)Cn2cnnn2)c1,
0.007 µM,CCC(=CC(=O)Nc1ccc(-c2ccccc2S(N)(=O)=O)cc1)c1cccc(C(=N)N)c1,
0.00074 µM,CC(=C(F)C(=O)Nc1ccc(-c2ccccc2S(N)(=O)=O)cc1Cl)c1ccc(F)c(C(=N)N)c1,Ki (Coagulation factor X [4]): 0.00018 µM
0.234 µM,CC(=C(CC(=O)O)C(=O)Nc1ccc(-c2ccccc2S(N)(=O)=O)cc1)c1cccc(C(=N)N)c1,
0.0037 µM,N=C(N)c1cccc(C(CO)=C(F)C(=O)Nc2ccc(-c3ccccc3S(N)(=O)=O)cc2)c1,
0.0036 µM,CC(=C(F)C(=O)Nc1ccc(-c2ccccc2S(N)(=O)=O)cc1)c1ccc(F)c(C(=N)N)c1,
0.0026 µM,C/C(=C(\F)C(=O)Nc1ccc(-c2ccccc2S(N)(=O)=O)cc1F)c1cc(C(=N)N)ccc1N,
0.099 µM,CC(=C(CC(N)=O)C(=O)Nc1ccc(-c2ccccc2S(N)(=O)=O)cc1)c1cccc(C(=N)N)c1,
0.245 µM,N=C(N)c1cccc(C(=CC(=O)Nc2ccc(-c3ccccc3S(N)(=O)=O)cc2)Cn2ncnn2)c1,
